Reference: US20240368109A1, “ALLOSTERIC MODULATORS OF NICOTINIC ACETYLCHOLINE RECEPTORS” (MERCK SHARP & DOHME LLC, priority 2021, published 2024)

Molecular target: human α7 nAChR (Homo sapiens (Human), UniProt P36544)
Assay: Automated patch-clamp electrophysiology functional assay (Assay A)
Format: cell-based
Settings: IonFlux HT whole-cell population patch, HEK cells expressing human α7/RIC-3, 40 μM acetylcholine
Experimental: The α7 nAChR positive allosteric modulator (PAM) activity of the present compounds may be tested using assays known in the art. The α7 nAChR PAMs described herein have activities in an automated patch-clamp electrophysiology functional assay as described in the examples. The assay was performed using the IonFlux HT in a whole-cell, population patch configuration. See Golden et al. Assay Drug Dev. Technol. (2011) 9:608-619. The compounds were assessed for their ability to modulate the function of the human α7 nAChR stably expressed in a HEK cell line both in the presence, and in the absence of the natural α7 agonist acetylcholine. By performing a series of such measurements at different concentrations, the effective concentration of the α7 nAChR PAMs (EC50) was determined. See Spencer et al. Assay Drug Dev. Technol. (2012) 10:313-324.
Direct activation of α7 (agonism), and potentiation of acetylcholine-evoked α7 currents was determined as follows:
Automated Patch-Clamp Electrophysiology Functional Assay (Assay A)
Automated patch-clamp electrophysiology was performed using the IonFluxHT (Fluxion Biosciences Inc., San Francisco, CA) in the whole-cell, population patch configuration. Test compounds were assessed for their ability to modulate the function of the α7 nicotinic acetylcholine receptor both in the presence, and in the absence of the natural α7 agonist acetylcholine. A HEK cell line stably expressing both human RIC-3 and human α7 (PrecisION hnAChR α7/RIC-3, Eurofins Pharma, St. Charles, MO) was cultured in 175 cm^2 triple-layer tissue culture flasks to no more than 90% confluency in DMEM/F-12 growth media supplemented with 10% heat-inactivated fetal bovine serum, 1% non-essential amino acids, 0.625 μg/mL Puromycin, and 400 μg/mL Geneticin. Immediately prior to assay, cells were detached by first aspirating growth media, rinsing with Dulbecco's phosphate buffered saline, and then adding 10 mL of Accutase (Innovative Cell Technologies, San Diego, CA) to the flask and then incubating at 37° C. for 5 minutes. Detached cells were then recovered by the addition of 40 mL of CHO-serum-free media supplemented with 25 mM HEPES, and rocked gently in a 50 mL conical tube for 20 minutes prior to patch-clamp assay. After recovery, cells were pelleted by centrifugation at 1,000 RPM for 1 minute in a compact bench top centrifuge; recovery media was aspirated and cells were resuspended in external recording solution (150 mM NaCl, 5 mM KCl, 2 mM CaCl2), 1 mM MgCl2, 10 mM HEPES, 12 mM dextrose) to a density of 5.0×10^6 cells/mL. The cell suspension was added to the cell inlet wells on an IonFlux HT population patch plate which had previously been rinsed and primed with deionized H2O. Test compounds were serially diluted in DMSO and then resuspended to the final test concentration in external recording solution, with, or without 40 μM acetylcholine added to the external recording solution; test compounds were then transferred to the IonFlux HT population patch plate. Internal recording solution (110 mM TrisPO4, 28 mM TrisBase, 0.1 mM CaCl2), 2 mM MgCl2, 11 mM EGTA, 4 mM MgATP) was added to the internal recording solution inlet wells on the IonFlux HT patch plate previously loaded with cells and test compounds, and the plate loaded into the IonFlux HT instrument. A protocol was executed on the IonFlux HT to trap the cells, break into the cells, and establish the whole-cell recording configuration; cells were voltage-clamped at a holding potential of −60 mV for the duration of the experiment, all experiments were conducted at room temperature, and the IonFlux HT injection pressure was 8 psi for solution applications. Upon establishing the whole-cell configuration, external recording solution was perfused into the recording chambers for 120 seconds and then 40 μM acetylcholine was applied for 1 second and immediately washed off with external recording solution for 60 seconds. […]

Sequence of human α7 nAChR (P36544 23-502): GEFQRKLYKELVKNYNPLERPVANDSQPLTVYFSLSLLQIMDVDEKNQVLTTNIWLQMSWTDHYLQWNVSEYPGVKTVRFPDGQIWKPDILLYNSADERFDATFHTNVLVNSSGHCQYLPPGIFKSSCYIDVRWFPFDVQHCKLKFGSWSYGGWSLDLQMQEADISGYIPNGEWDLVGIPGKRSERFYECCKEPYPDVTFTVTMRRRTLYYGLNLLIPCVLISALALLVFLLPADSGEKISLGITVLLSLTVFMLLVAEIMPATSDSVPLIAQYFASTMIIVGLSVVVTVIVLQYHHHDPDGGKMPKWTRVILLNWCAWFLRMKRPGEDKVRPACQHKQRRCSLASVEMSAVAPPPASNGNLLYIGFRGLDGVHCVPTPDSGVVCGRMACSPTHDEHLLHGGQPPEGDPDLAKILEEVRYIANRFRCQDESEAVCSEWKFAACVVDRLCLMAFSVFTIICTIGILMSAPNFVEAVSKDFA

Row | EC50 (electrophysiology EC50 values) [nM] | EC50 (potency class) [nM] | SMILES
1 | 2200 | 500 to 5000 | CCOc1ccc([C@H](CO)NC(=O)C2C3COc4ccc(F)cc4C32)cn1 (stereo partly drawn) [Example A3, exo-N-[(1R)-1-(6-ethoxypyridin-3-yl)-2-hydroxyethyl]-6-fluoro-1,1a,2,7b-tetrahydrocyclopropa[c][1]benzopyran-1-carboxamide]
2 | 630 | 500 to 5000 | CCOc1ccc([C@H](COC)NC(=O)C2C3Oc4cc(OC)ccc4C32)cc1 (stereo partly drawn) [Example B17, exo-N-[(1R)-1-(4-ethoxyphenyl)-2-methoxyethyl]-4-methoxy-1a,6b-dihydro-1H-cyclopropa[b][1]benzofuran-1-carboxamide]
3 | 680 | 500 to 5000 | O=C(NCc1ccc(O)cc1)C1C2Oc3ccc(F)cc3C21 (stereo not drawn) [Example C26, exo-5-fluoro-N-[(4-hydroxyphenyl)methyl]-1a,6b-dihydro-1H-cyclopropa[b][1]benzofuran-1-carboxamide]
4 | 4600 | 500 to 5000 | O=C(NC1(c2ccc(F)cc2)CC(O)C1)C1C2COc3ccccc3C21 (stereo not drawn) [Example A5, exo-N-[1-(4-fluorophenyl)-3-hydroxycyclobutyl]-1,1a,2,7b-tetrahydrocyclopropa[c][1]benzopyran-1-carboxamide]
5 | 1600 | 500 to 5000 | O=C(N[C@H]1CCOc2cc(F)c(F)cc21)C1C2COc3ccccc3C21 (stereo partly drawn) [Example A19, exo-N-[(4S)-6,7-difluoro-3,4-dihydro-2H-1-benzopyran-4-yl]-1,1a,2,7b-tetrahydrocyclopropa[c][1]benzopyran-1-carboxamide]
6 | 1100 | 500 to 5000 | O=C(N[C@@H](CO)C1CCCCC1)C1C2COc3ccccc3C21 (stereo partly drawn) [Example A6, exo-N-[(1R)-1-cyclohexyl-2-hydroxyethyl]-1,1a,2,7b-tetrahydrocyclopropa[c][1]benzopyran-1-carboxamide]
7 | 1100 | 500 to 5000 | CCOc1ccc([C@@H](NC(=O)C2C3Oc4ccc(F)cc4C32)C(F)F)cn1 (stereo partly drawn) [Example C9, exo-N-[(1R)-1-(6-ethoxypyridin-3-yl)-2,2-difluoroethyl]-5-fluoro-1a,6b-dihydro-1H-cyclopropa[b][1]benzofuran-1-carboxamide]
8 |  | 500 to 5000 | O=C(NCc1nc2ccccc2s1)C1C2Oc3ccc(F)cc3C21 (stereo not drawn) [Example C28, 2-{[(exo-5-fluoro-1a,6b-dihydro-1H-cyclopropa[b][1]benzofuran-1-carbonyl)amino]methyl}-1,3-benzothiazole]
9 | 270 | 100 to 500 | O=C(NCc1noc(-c2ccccc2)n1)C1C2Oc3ccc(F)cc3C21 (stereo not drawn) [Example C49, exo-5-fluoro-N-[(5-phenyl-1,2,4-oxadiazol-3-yl)methyl]-1a,6b-dihydro-1H-cyclopropa[b][1]benzofuran-1-carboxamide]
10 | 480 | 100 to 500 | CCOc1ccc([C@H](COC)NC(=O)C2C3Oc4cc(Br)ccc4C32)cc1 (stereo partly drawn) [Example B15, exo-4-bromo-N-[(1R)-1-(4-ethoxyphenyl)-2-methoxyethyl]-1a,6b-dihydro-1H-cyclopropa[b][1]benzofuran-1-carboxamide]
11 |  | 500 to 5000 | COC(CNC(=O)[C@@H]1[C@H]2COc3ccc(F)cc3[C@H]21)C1CCCCC1 (single isomer, unassigned) [Example A4, exo-N-(2-cyclohexyl-2-methoxyethyl)-6-fluoro-1,1a,2,7b-tetrahydrocyclopropa[c][1]benzopyran-1-carboxamide]
12 |  | 500 to 5000 | O=C(NCc1cc(Br)no1)C1C2Oc3ccc(F)cc3C21 (stereo not drawn) [Example C47, exo-N-[(3-bromo-1,2-oxazol-5-yl)methyl]-5-fluoro-1a,6b-dihydro-1H-cyclopropa[b][1]benzofuran-1-carboxamide]
13 |  | 5000 to 50000 | COc1ccc(-c2cc(CNC(=O)C3C4Oc5ccc(F)cc5C43)on2)cc1 (stereo not drawn) [Example C44, exo-5-fluoro-N-{[3-(4-methoxyphenyl)-1,2-oxazol-5-yl]methyl}-1a,6b-dihydro-1H-cyclopropa[b][1]benzofuran-1-carboxamide]
14 | 1600 | 500 to 5000 | O=C(N[C@@H]1CCc2c(O)cccc21)C1C2Oc3ccc(F)cc3C21 (mixture of isomers) [Example C10, exo-5-fluoro-N-(4-hydroxy-2,3-dihydro-1H-inden-1-yl)-1a,6b-dihydro-1H-cyclopropa[b][1]benzofuran-1-carboxamide]
15 | 550 | 500 to 5000 | O=C(NCc1cc(-c2ccccc2)no1)C1C2Oc3ccc(F)cc3C21 (stereo not drawn) [Example C48, exo-5-fluoro-N-[(3-phenyl-1,2-oxazol-5-yl)methyl]-1a,6b-dihydro-1H-cyclopropa[b][1]benzofuran-1-carboxamide]
16 |  | 500 to 5000 | O=C(NCc1nc(Br)no1)C1C2Oc3ccc(F)cc3C21 (stereo not drawn) [Example C41, exo-N-[(3-bromo-1,2,4-oxadiazol-5-yl)methyl]-5-fluoro-1a,6b-dihydro-1H-cyclopropa[b][1]benzofuran-1-carboxamide]
17 | 480 | 100 to 500 | O=C(NCc1nnc(-c2ccccc2)o1)C1C2Oc3ccc(F)cc3C21 (stereo not drawn) [Example C50, exo-5-fluoro-N-[(5-phenyl-1,3,4-oxadiazol-2-yl)methyl]-1a,6b-dihydro-1H-cyclopropa[b][1]benzofuran-1-carboxamide]
18 | 1800 | 500 to 5000 | CC(NC(=O)C1C2Oc3ccc(F)cc3C21)c1ccc(Br)cc1 (stereo not drawn) [Example C37, exo-N-[1-(4-bromophenyl)ethyl]-5-fluoro-1a,6b-dihydro-1H-cyclopropa[b][1]benzofuran-1-carboxamide]
19 | 1400 | 500 to 5000 | CCOc1ccc([C@@H](NC(=O)C2C3Oc4ccc(F)cc4C32)C(F)F)cn1 (stereo partly drawn) [Example C5, exo-N-[(1R)-1-(6-ethoxypyridin-3-yl)-2,2-difluoroethyl]-5-fluoro-1a,6b-dihydro-1H-cyclopropa[b][1]benzofuran-1-carboxamide]

Row | SMILES | EC50 (electrophysiology EC50 values) [nM] | EC50 (potency class) [nM]
20 | CCOc1ccc([C@H](COC)NC(=O)C2C3c4ccccc4N(C(C)=O)C23)cc1 (stereo partly drawn) [Example B12, exo-2-acetyl-N-[(1R)-1-(4-ethoxyphenyl)-2-methoxyethyl]-1,1a,2,6b-tetrahydrocyclopropa[b]indole-1-carboxamide] | 1300 | 500 to 5000
21 | O=C(NCc1cccc(I)c1)C1C2Oc3ccc(F)cc3C21 (stereo not drawn) [Example C21, exo-5-fluoro-N-[(3-iodophenyl)methyl]-1a,6b-dihydro-1H-cyclopropa[b][1]benzofuran-1-carboxamide] | 2100 | 500 to 5000
22 | O=C(NCc1ccc2cnccc2c1)C1C2Oc3ccc(F)cc3C21 (stereo not drawn) [Example C38, 6-{[(exo-5-fluoro-1a,6b-dihydro-1H-cyclopropa[b][1]benzofuran-1-carbonyl)amino]methyl}isoquinoline] | 4700 | 500 to 5000
23 | O=C(NCc1ccc2ncccc2c1)C1C2Oc3ccc(F)cc3C21 (stereo not drawn) [Example C27, 6-{[(exo-5-fluoro-1a,6b-dihydro-1H-cyclopropa[b][1]benzofuran-1-carbonyl)amino]methyl}quinoline] | 2000 | 500 to 5000
24 | O=C(N[C@@H](CO)C1CCCCC1)C1C2Sc3ccccc3C21 (stereo partly drawn) [Example C2, exo-N-[(1R)-1-cyclohexyl-2-hydroxyethyl]-1a,6b-dihydro-1H-cyclopropa[b][1]benzothiophene-1-carboxamide] | 2300 | 500 to 5000
25 | O=C(NCc1n[nH]c2c1CCCCC2)[C@H]1[C@@H]2Oc3ccc(F)cc3[C@@H]21 [Example C33, 3-{[(exo-5-fluoro-1a,6b-dihydro-1H-cyclopropa[b][1]benzofuran-1-carbonyl)amino]methyl}-1,4,5,6,7,8-hexahydrocyclohepta[c]pyrazole] |  | 500 to 5000
